Results: article PMC10065799, “High-throughput profiling of sequence recognition by tyrosine kinases and SH2 domains using bacterial peptide display” (eLife, 2023)

Columns and labels:
Test in all cases: pTyr-Var library bacterial peptide display kinase screen (enrichment scores)
EPHB1 kinase domain = type: biochemical, human; conditions: for Screen: sheet EPHB1, effect of the variant peptide relative to its reference peptide in the pTyr-Var library screen (enrichment scores); for Screen (variant relative to reference peptide, measured in the pTyr-Var library screen): sheet "EPHB1", variant seq vs reference seq, bacterial peptide display enrichment
EPHB2 kinase domain = type: biochemical, human; conditions: sheet EPHB2
c-Src kinase domain = c-Src kinase domain (Homo sapiens, UniProt P12931); type: biochemical; conditions: sheet "Src";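 further: log2 fold change in enrichment of variant over reference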
c-Abl kinase domain = biological target: T1, c-Abl kinase domain (Mus musculus, UniProt P00520); type: biochemical;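 further: log2 fold change in enrichment of variant over reference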
T1 sequence (P00520 242-493 limits assumed): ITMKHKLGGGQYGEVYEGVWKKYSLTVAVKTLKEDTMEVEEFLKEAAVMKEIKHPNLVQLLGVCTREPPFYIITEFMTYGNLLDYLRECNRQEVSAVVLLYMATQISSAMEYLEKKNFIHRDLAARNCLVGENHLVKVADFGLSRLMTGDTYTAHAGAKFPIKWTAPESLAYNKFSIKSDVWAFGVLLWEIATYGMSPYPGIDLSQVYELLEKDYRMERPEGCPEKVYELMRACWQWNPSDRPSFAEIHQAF

Fer kinase domain = type: biochemical, mouse; conditions: sheet "Fer"
[1] = effect of variant peptide relative to its reference peptide in the pTyr-Var library screen (enrichment scores)
[2] = effect of the variant peptide relative to its reference peptide in the pTyr-Var library screen
[3] = variant peptide versus its reference peptide in the pTyr-Var library screen
[4] = fig5-data2, sheet "Abl", Screen for the variant/reference peptide pair, pTyr-Var library
[5] = variant peptide relative to its reference peptide, pTyr-Var library screen enrichment
[6] = value of the variant peptide against its reference peptide in the pTyr-Var library screen with Fer
[7] = sheet "Abl", effect of variant peptide relative to its reference peptide in pTyr-Var library screen (enrichment)

## LGSVVYAQSKE [KCNQ2_Y226_H228Q]
EPHB1 kinase domain
  Screen: 1.461

## LGSWTYPKTVS [ROS1_Y144_T145P]
EPHB1 kinase domain
  Screen: -2.133

## LIGWRYDDPEV [HSPA9_Y128_R126W]
EPHB2 kinase domain; [1]
  Screen: -0.9592

## LITILYIGFLG [KCNQ1_Y267_T265I]
c-Src kinase domain; [2]
  Screen: -1.468

## LITLVYGCSRQ [TMPRSS6_Y290_S288L]
c-Src kinase domain; [3]
  Screen: -0.7056

## LLQAEYWHDPI [PPT1_Y185_V181L]
c-Abl kinase domain; [4]
  Screen: 0.8908

## LRFDSYWSFCN [SLC20A2_Y433_S434W_YF]
c-Src kinase domain; [3]
  Screen: 2.108

## LVKDPYVMFPQ [PLEKHG2_Y489_P484L]
c-Src kinase domain; [3]
  Screen: 0.6915
c-Abl kinase domain; [4]
  Screen: 1.829

## LVQAEYWHDRI [PPT1_Y185_P189R]
c-Abl kinase domain; [4]
  Screen: 0.6024

## MGGSLYFSFPD [HIKESHI_Y55_V54L_YF]
c-Src kinase domain; [2]
  Screen: 0.1907
EPHB1 kinase domain
  Screen: 2.816
EPHB2 kinase domain; [1]
  Screen: 2.441

## MIHSAYALGGL [CPS1_Y590_R587H]
c-Abl kinase domain; [4]
  Screen: -0.66

## MNLLGYRQVRS [CHST4_Y359_H361Q]
c-Abl kinase domain; [4]
  Screen: -1.908

## MVSLFYGTAIF [OR10C1_Y251_L255I]
c-Src kinase domain; [3]
  Screen: -0.3478

## MWGSDYVHLSR [MAP3K4_Y582_Q584H]
EPHB1 kinase domain
  Screen: -1.547
EPHB2 kinase domain; [1]
  Screen: -2.255

## NRLTDYFELLL [BBS10_Y536_P539L_YF]
EPHB1 kinase domain
  Screen: -2.013

## NTADFYDLFGG [PTPN11_Y63_G60A_YF]
c-Src kinase domain; [3]
  Screen: -0.001161
Fer kinase domain; [5]
  Screen: -0.1929

## NTVDFYDLFGG [PTPN11_Y63_G60V_YF]
c-Src kinase domain; [3]
  Screen: -0.792
Fer kinase domain; [5]
  Screen: -0.946

## PEAALYGRFTF [FYN_Y440_I445F]
c-Src kinase domain; [2]
  Screen: 0.2008
Fer kinase domain; [6]
  Screen: 0.7423

## PESIMYWKFTT [NTRK3_Y744_R745W]
c-Src kinase domain; [3]
  Screen: 2.713
Fer kinase domain; [6]
  Screen: 1.613

## PFAEPYADFGG [APBA1_Y187_S184A_YF]
c-Src kinase domain; [2]
  Screen: -0.451

## PLDGEYFTLHI [TP53_Y327_Q331H]
c-Src kinase domain; [3]
  Screen: -0.3825

## PLDGEYFTLRI [TP53_Y327_Q331R]
c-Src kinase domain; [3]
  Screen: -0.2935

## PLQNTYNFNVL [SLC4A1_Y553_K551N_YF]
c-Src kinase domain; [3]
  Screen: 2.669

## PRIHSYRGHLW [VHL_Y112_R107P]
c-Src kinase domain; [3]
  Screen: -2.322
EPHB1 kinase domain
  Screen (variant relative to reference peptide, measured in the pTyr-Var library screen): -0.7646

## QADVTYVNTQL [MERTK_Y872_I871T]
Fer kinase domain; [6]
  Screen: -3.553
EPHB1 kinase domain
  Screen: -1.632

## QGCGIYKDFFR [PLA2G2D_Y82_S80G_YF]
c-Src kinase domain; [3]
  Screen: -0.1018

## QNKEDYDGLKE [GSTO1_Y139_A140D]
Fer kinase domain; [6]
  Screen: -0.3459

## QNTADYFDLFG [PTPN11_Y62_G60A_YF]
c-Src kinase domain; [3]
  Screen: -1.145
EPHB1 kinase domain
  Screen: -0.5569
EPHB2 kinase domain; [1]
  Screen: -0.5539

## QNTGNYFDLFG [PTPN11_Y62_D61N_YF]
c-Src kinase domain; [3]
  Screen: -1.162
EPHB1 kinase domain
  Screen: 0.2097
EPHB2 kinase domain; [1]
  Screen: 0.1444

## RCQDLYSARDL [SART1_Y249_R245C]
c-Src kinase domain; [3]
  Screen: 2.461
Fer kinase domain; [5]
  Screen: 2.483
EPHB1 kinase domain
  Screen: 1.546

## RFGRKYKKVRF [F8_Y442_I438F]
c-Abl kinase domain; [4]
  Screen: -0.368

## RGDVIYKGFED [NFU1_Y194_G189R]
c-Src kinase domain; [3]
  Screen: -0.4435

## RKPDIYGRLAS [MCM4_Y459_E460G]
c-Src kinase domain; [2]
  Screen: 0.1835

## RLEPVYFVAPA [LAMC2_Y250_D247E]
c-Src kinase domain; [2]
  Screen: -0.2779
EPHB1 kinase domain
  Screen: 0.4539
EPHB2 kinase domain; [1]
  Screen: 0.4501

## RLGDLYKEEMR [VIM_Y150_E151K]
c-Abl kinase domain; [7]
  Screen: 1.898

## RMDGKYACSFT [FLNB_Y704_T703K_YF]
c-Src kinase domain; [2]
  Screen: -2.226

## RQQEVYLLFKQ [RARRES1_Y159_D158V_YF]
c-Abl kinase domain; [4]
  Screen: 1.344

## RRIHSYRRHLW [VHL_Y112_G114R]
c-Src kinase domain; [3]
  Screen: -2.73
EPHB1 kinase domain
  Screen (variant relative to reference peptide, measured in the pTyr-Var library screen): -1.158

## RVFIKYLPEWT [PSEN1_Y240_L235R]
c-Abl kinase domain; [4]
  Screen: 0.4533

## SDVDLYQVRIA [PSMD9_Y70_T74I]
c-Src kinase domain; [3]
  Screen: 0.1663

## SGADSYEMEED [EGFR_Y316_C311S]
c-Abl kinase domain; [4]
  Screen: 1.025

## SILAVYSKDIF [PANK2_Y400_N404I_YF]
c-Src kinase domain; [3]
  Screen: -0.2771

## SLIDGYFRLTE [JAK2_Y372_A377E_YF]
c-Abl kinase domain; [4]
  Screen: -1.303

## SVTCPYSPALN [TP53_Y126_T125P]
c-Src kinase domain; [3]
  Screen: 1.73

## TEGNGYISFNE [LCP1_Y28_D24E]
c-Abl kinase domain; [4]
  Screen: 0.5821

## TENAGYFFRIS [TTN_Y31721_V31725I_YF]
c-Abl kinase domain; [7]
  Screen: -1.38

## TSIGNYFKPWF [DHCR24_Y299_N294T_YF]
EPHB1 kinase domain
  Screen: 0.02902
EPHB2 kinase domain; [1]
  Screen: -0.167

## TSKLSYLDPRI [TOP1_Y723_N722S]
EPHB1 kinase domain
  Screen (variant relative to reference peptide, measured in the pTyr-Var library screen): -2.938
EPHB2 kinase domain; effect of the variant relative to its reference peptide in the pTyr-Var library screen
  Screen: -1.966

## TTEHIYGDKFF [UBA7_Y524_N527K]
c-Src kinase domain; [3]
  Screen: 0.1479
Fer kinase domain; [5]
  Screen: -2.246

## VITTLYIGFLG [KCNQ1_Y267_L262V]
c-Src kinase domain; [2]
  Screen: -0.844

## WQQQSYLDSEI [CTNNB1_Y30_G34E]
c-Abl kinase domain; [4]
  Screen: 2.603
